# In ChEMBL document CHEMBL3763075, “Evaluation of phenylcyclopropylamine compounds by enzymatic assay of lysine-specific demethylase 2 in the presence of NPAC peptide” (Bioorg Med Chem Lett, 2016):
# Target: T1, Lysine-specific histone demethylase 2 (Homo sapiens, UniProt Q8NB78)
# T1 sequence (Q8NB78 whole entry): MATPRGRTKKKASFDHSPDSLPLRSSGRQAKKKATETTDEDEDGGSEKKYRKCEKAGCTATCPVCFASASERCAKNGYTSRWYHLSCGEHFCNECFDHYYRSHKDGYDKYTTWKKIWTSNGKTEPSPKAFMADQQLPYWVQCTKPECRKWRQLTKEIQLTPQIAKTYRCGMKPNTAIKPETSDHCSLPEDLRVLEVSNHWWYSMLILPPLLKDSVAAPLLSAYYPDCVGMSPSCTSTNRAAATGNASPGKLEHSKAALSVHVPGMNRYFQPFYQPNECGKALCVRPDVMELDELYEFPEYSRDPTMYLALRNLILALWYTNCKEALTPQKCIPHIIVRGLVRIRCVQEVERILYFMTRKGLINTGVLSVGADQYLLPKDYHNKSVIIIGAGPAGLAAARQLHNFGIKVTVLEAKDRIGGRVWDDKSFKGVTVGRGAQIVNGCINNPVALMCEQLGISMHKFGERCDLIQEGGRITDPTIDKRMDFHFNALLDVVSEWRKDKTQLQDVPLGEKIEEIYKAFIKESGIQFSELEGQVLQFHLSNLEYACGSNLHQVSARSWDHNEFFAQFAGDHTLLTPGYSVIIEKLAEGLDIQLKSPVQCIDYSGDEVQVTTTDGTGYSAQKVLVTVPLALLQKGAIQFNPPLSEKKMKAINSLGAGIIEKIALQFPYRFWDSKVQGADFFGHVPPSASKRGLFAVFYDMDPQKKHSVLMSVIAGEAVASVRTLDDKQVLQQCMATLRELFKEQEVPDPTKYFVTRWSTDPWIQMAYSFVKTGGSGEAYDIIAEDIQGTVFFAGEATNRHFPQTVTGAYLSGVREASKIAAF
# Description: Inhibition of recombinant human LSD2 using H3K4 peptide as substrate assessed as decrease in H3K4 demethylation after 1 hr by mass spectroscopic analysis
row,IC50 [µM],SMILES
1,250,O=C(N[C@@H](CCCCNC1CC1c1ccccc1)C(=O)NCc1ccc(Cl)cc1)c1ccc(-c2ccccc2)cc1 (stereo partly drawn)
2,> 540,O=C(N[C@@H](CCCCNC1CC1c1ccccc1)C(=O)NCc1cccc(C(F)(F)F)c1)c1ccc(-c2ccccc2)cc1 (stereo partly drawn)
3,230,O=C(N[C@@H](CCCCNC1CC1c1ccccc1)C(=O)NCc1ccccc1)c1ccc(-c2ccccc2)cc1 (stereo partly drawn)
